Experimental data from patent publication US10206394B2, “Herbicidal compounds” (Syngenta Participations AG, priority 2014, dated 2019).
Where two headings read alike, the source gives them in different places.

Columns and labels:
Assay in all cases: Glasshouse assay for herbicidal activity (pre- and post-emergence), percentage phytotoxicity
Type in all cases: in vivo
[1] = system: Alopecurus myosuroides (ALOMY); conditions: Alopecurus myosuroides
How it was run: (§1)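 Pot-grown plants treated one day after sowing (pre-emergence) or at about 12 days (post-emergence); glasshouse at 24/18° C (warm) or 20/16° C (cool species) day/night, 16 h light, 65% humidity. Visual % phytotoxicity (0 = none, 100 = total damage) scored at 15 DAA post or 20 DAA pre.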

Avena fatua (AVEFA) = conditions: Avena fatua
How it was run: as §1

Lolium perenne (LOLPE) = conditions: Lolium perenne
How it was run: as §1

[2] = system: Echinochloa crus-galli (ECHCG); conditions: Echinochloa crus-galli
How it was run: as §1

[3] = post-emergence, 360 h, Rate 250 g/ha, post-emergence, assessed visually 15 DAA, 100%=total damage, 0%=no damage, read-out: Post-emergence herbicidal activity (percentage phytotoxicity) ALOMY POST
[4] = pre-emergence, 480 h, Rate 250 g/ha, pre-emergence, assessed visually 20 DAA, 100%=total damage, 0%=no damage, read-out: Pre-emergence herbicidal activity (percentage phytotoxicity) ALOMY PRE
[5] = post-emergence, 360 h, Rate 250 g/ha, post-emergence, assessed visually 15 DAA, 100%=total damage, 0%=no damage, read-out: Post-emergence herbicidal activity (percentage phytotoxicity) AVEFA POST
[6] = pre-emergence, 480 h, Rate 250 g/ha, pre-emergence, assessed visually 20 DAA, 100%=total damage, 0%=no damage, read-out: Pre-emergence herbicidal activity (percentage phytotoxicity) AVEFA PRE
[7] = post-emergence, 360 h, Rate 250 g/ha, post-emergence, assessed visually 15 DAA, 100%=total damage, 0%=no damage, read-out: Post-emergence herbicidal activity (percentage phytotoxicity) LOLPE POST
[8] = pre-emergence, 480 h, Rate 250 g/ha, pre-emergence, assessed visually 20 DAA, 100%=total damage, 0%=no damage, read-out: Pre-emergence herbicidal activity (percentage phytotoxicity) LOLPE PRE
[9] = post-emergence, 360 h, Rate 250 g/ha, post-emergence, assessed visually 15 DAA, 100%=total damage, 0%=no damage, read-out: Post-emergence herbicidal activity (percentage phytotoxicity) ECHCG POST
[10] = pre-emergence, 480 h, Rate 250 g/ha, pre-emergence, assessed visually 20 DAA, 100%=total damage, 0%=no damage, read-out: Pre-emergence herbicidal activity (percentage phytotoxicity) ECHCG PRE
[11] = post-emergence, 360 h, 250 g/ha, post-emergence, 15 DAA, visual assessment (100%=total damage, 0%=no damage), read-out: Post-emergence herbicidal activity (percentage phytotoxicity) ALOMY POST
[12] = pre-emergence, 480 h, 250 g/ha, pre-emergence, 20 DAA, visual assessment (100%=total damage, 0%=no damage), read-out: Pre-emergence herbicidal activity (percentage phytotoxicity) ALOMY PRE
[13] = post-emergence, 360 h, 250 g/ha, post-emergence, 15 DAA, visual assessment (100%=total damage, 0%=no damage), read-out: Post-emergence herbicidal activity (percentage phytotoxicity) AVEFA POST
[14] = pre-emergence, 480 h, 250 g/ha, pre-emergence, 20 DAA, visual assessment (100%=total damage, 0%=no damage), read-out: Pre-emergence herbicidal activity (percentage phytotoxicity) AVEFA PRE
[15] = post-emergence, 360 h, 250 g/ha, post-emergence, 15 DAA, visual assessment (100%=total damage, 0%=no damage), read-out: Post-emergence herbicidal activity (percentage phytotoxicity) LOLPE POST
[16] = pre-emergence, 480 h, 250 g/ha, pre-emergence, 20 DAA, visual assessment (100%=total damage, 0%=no damage), read-out: Pre-emergence herbicidal activity (percentage phytotoxicity) LOLPE PRE
[17] = post-emergence, 360 h, 250 g/ha, post-emergence, 15 DAA, visual assessment (100%=total damage, 0%=no damage), read-out: Post-emergence herbicidal activity (percentage phytotoxicity) ECHCG POST
[18] = pre-emergence, 480 h, 250 g/ha, pre-emergence, 20 DAA, visual assessment (100%=total damage, 0%=no damage), read-out: Pre-emergence herbicidal activity (percentage phytotoxicity) ECHCG PRE
[19] = post-emergence, 360 h, POST-emergence, rate 250 g/ha, visual score 15 DAA (100%=total damage, 0%=no damage), read-out: Post-emergence herbicidal activity (percentage phytotoxicity) ALOMY POST
[20] = pre-emergence, 480 h, PRE-emergence, rate 250 g/ha, visual score 20 DAA (100%=total damage, 0%=no damage), read-out: Pre-emergence herbicidal activity (percentage phytotoxicity) ALOMY PRE
[21] = post-emergence, 360 h, POST-emergence, rate 250 g/ha, visual score 15 DAA (100%=total damage, 0%=no damage), read-out: Post-emergence herbicidal activity (percentage phytotoxicity) AVEFA POST
[22] = pre-emergence, 480 h, PRE-emergence, rate 250 g/ha, visual score 20 DAA (100%=total damage, 0%=no damage), read-out: Pre-emergence herbicidal activity (percentage phytotoxicity) AVEFA PRE
[23] = post-emergence, 360 h, POST-emergence, rate 250 g/ha, visual score 15 DAA (100%=total damage, 0%=no damage), read-out: Post-emergence herbicidal activity (percentage phytotoxicity) LOLPE POST
[24] = pre-emergence, 480 h, PRE-emergence, rate 250 g/ha, visual score 20 DAA (100%=total damage, 0%=no damage), read-out: Pre-emergence herbicidal activity (percentage phytotoxicity) LOLPE PRE
[25] = post-emergence, 360 h, POST-emergence, rate 250 g/ha, visual score 15 DAA (100%=total damage, 0%=no damage), read-out: Post-emergence herbicidal activity (percentage phytotoxicity) ECHCG POST
[26] = pre-emergence, 480 h, PRE-emergence, rate 250 g/ha, visual score 20 DAA (100%=total damage, 0%=no damage), read-out: Pre-emergence herbicidal activity (percentage phytotoxicity) ECHCG PRE

Compound | pest or weed control at 250 g/ha [1, 3] [%] | pest or weed control at 250 g/ha [1, 4] [%] | pest or weed control at 250 g/ha (Avena fatua (AVEFA); [5]) [%] | pest or weed control at 250 g/ha (Avena fatua (AVEFA); [6]) [%] | pest or weed control at 250 g/ha (Lolium perenne (LOLPE); [7]) [%] | pest or weed control at 250 g/ha (Lolium perenne (LOLPE); [8]) [%] | pest or weed control at 250 g/ha [2, 9] [%] | pest or weed control at 250 g/ha [2, 10] [%] | pest or weed control at 250 g/ha [1, 11] [%] | pest or weed control at 250 g/ha [1, 12] [%] | pest or weed control at 250 g/ha (Avena fatua (AVEFA); [13]) [%] | pest or weed control at 250 g/ha (Avena fatua (AVEFA); [14]) [%] | pest or weed control at 250 g/ha (Lolium perenne (LOLPE); [15]) [%] | pest or weed control at 250 g/ha (Lolium perenne (LOLPE); [16]) [%] | pest or weed control at 250 g/ha [2, 17] [%] | pest or weed control at 250 g/ha [2, 18] [%] | further results
Cc1cc(-c2nccs2)cc(C)c1C1C(=O)CC(CC(=O)NC(C)(C)C)C1=O (centres unmarked) [Compound A186] | – | – | – | – | – | – | – | – | – | – | – | – | – | – | – | – | pest or weed control at 250 g/ha ([1]; post-emergence, 360 h, post-emergence, 250 g/ha, 15 DAA, visual score (100%=total damage; 0%=no damage), read-out: ALOMY POST herbicidal activity (percentage phytotoxicity)): 40%; pest or weed control at 250 g/ha ([1]; pre-emergence, 480 h, pre-emergence, 250 g/ha, 20 DAA, visual score (100%=total damage; 0%=no damage), read-out: ALOMY PRE herbicidal activity (percentage phytotoxicity)): 40%; pest or weed control at 250 g/ha (Avena fatua (AVEFA); post-emergence, 360 h, post-emergence, 250 g/ha, 15 DAA, visual score (100%=total damage; 0%=no damage), read-out: AVEFA POST herbicidal activity (percentage phytotoxicity)): 30%; pest or weed control at 250 g/ha (Avena fatua (AVEFA); pre-emergence, 480 h, pre-emergence, 250 g/ha, 20 DAA, visual score (100%=total damage; 0%=no damage), read-out: AVEFA PRE herbicidal activity (percentage phytotoxicity)): 0%; pest or weed control at 250 g/ha (Lolium perenne (LOLPE); post-emergence, 360 h, post-emergence, 250 g/ha, 15 DAA, visual score (100%=total damage; 0%=no damage), read-out: LOLPE POST herbicidal activity (percentage phytotoxicity)): 60%; pest or weed control at 250 g/ha (Lolium perenne (LOLPE); pre-emergence, 480 h, pre-emergence, 250 g/ha, 20 DAA, visual score (100%=total damage; 0%=no damage), read-out: LOLPE PRE herbicidal activity (percentage phytotoxicity)): 60%; pest or weed control at 250 g/ha ([2]; post-emergence, 360 h, post-emergence, 250 g/ha, 15 DAA, visual score (100%=total damage; 0%=no damage), read-out: ECHCG POST herbicidal activity (percentage phytotoxicity)): 80%; pest or weed control at 250 g/ha ([2]; pre-emergence, 480 h, pre-emergence, 250 g/ha, 20 DAA, visual score (100%=total damage; 0%=no damage), read-out: ECHCG PRE herbicidal activity (percentage phytotoxicity)): 70%
Cc1cc(C)c(C2C(=O)CC(CC(=O)NCc3cc(C)nn3C)C2=O)c(C)c1 (centres unmarked) [Compound A84] | 60 | 40 | 20 | 0 | 20 | 10 | 70 | 0 | – | – | – | – | – | – | – | – | –
Cc1cc(-c2ccc(C#N)cc2F)cc(C)c1C1C(=O)CC(CC(=O)NC(C)C)C1=O (centres unmarked) [Compound A38] | 80 | 80 | 100 | 90 | 80 | 90 | 90 | 100 | – | – | – | – | – | – | – | – | –
Cc1cc(C)c(C2C(=O)CC(CC(=O)NCc3cccc(F)c3)C2=O)c(C)c1 (centres unmarked) [Compound B21] | – | – | – | – | – | – | – | – | 80 | 80 | 90 | 50 | 90 | 100 | 90 | 100 | –
COc1ccc(CNC(=O)CC2CC(=O)C(c3c(C)cc(C)cc3C)C2=O)cc1 (centres unmarked) [Compound B18] | – | – | – | – | – | – | – | – | 80 | 70 | 90 | 80 | 100 | 100 | 90 | 90 | –
Cc1cc(-c2ncc(F)cc2F)cc(C)c1C1C(=O)CC(CC(=O)NC2CC2F)C1=O (centres unmarked) [Compound B289] | – | – | – | – | – | – | – | – | – | – | – | – | – | – | – | – | pest or weed control at 250 g/ha [1, 19]: 100%; pest or weed control at 250 g/ha [1, 20]: 100%; pest or weed control at 250 g/ha (Avena fatua (AVEFA); [21]): 100%; pest or weed control at 250 g/ha (Avena fatua (AVEFA); [22]): 100%; pest or weed control at 250 g/ha (Lolium perenne (LOLPE); [23]): 100%; pest or weed control at 250 g/ha (Lolium perenne (LOLPE); [24]): 100%; pest or weed control at 250 g/ha [2, 25]: 100%; pest or weed control at 250 g/ha [2, 26]: 100%
C=C(C)CNC(=O)CC1CC(=O)C(c2c(C)cc(-c3ncc(F)cc3F)cc2C)C1=O (centres unmarked) [Compound B200] | – | – | – | – | – | – | – | – | – | – | – | – | – | – | – | – | pest or weed control at 250 g/ha [1, 19]: 100%; pest or weed control at 250 g/ha [1, 20]: 100%; pest or weed control at 250 g/ha (Avena fatua (AVEFA); [21]): 100%; pest or weed control at 250 g/ha (Avena fatua (AVEFA); [22]): 90%; pest or weed control at 250 g/ha (Lolium perenne (LOLPE); [23]): 100%; pest or weed control at 250 g/ha (Lolium perenne (LOLPE); [24]): 100%; pest or weed control at 250 g/ha [2, 25]: 100%; pest or weed control at 250 g/ha [2, 26]: 100%
CCc1cc(-n2cc(Cl)cn2)cc(C)c1C1C(=O)CC(CC(=O)NC(C)(C)C)C1=O (centres unmarked) [Compound B135] | – | – | – | – | – | – | – | – | 100 | 100 | 100 | 90 | 100 | 100 | 100 | 100 | –
CC#Cc1cc(C)c(C2C(=O)CC(CC(=O)NCCC(F)(F)F)C2=O)c(C)c1 (centres unmarked) [Compound A58] | 100 | 100 | 100 | 100 | 90 | 90 | 100 | 100 | – | – | – | – | – | – | – | – | –
C#CCNC(=O)CC1CC(=O)C(c2c(C)cc(-c3ncc(Cl)cc3F)cc2C)C1=O (centres unmarked) [Compound A69] | 100 | 100 | 100 | 100 | 100 | 100 | 100 | 100 | – | – | – | – | – | – | – | – | –
